Experimental data reported in patent publication US20260226065A1, “SUBSTITUTED BENZENE COMPOUND” (DAIICHI SANKYO COMPANY, LIMITED, priority 2023, published 2026).
Where a name gives a salt, the structure may show the parent alone.

Each compound was assayed against T1, NLRP3 inflammasome (Homo sapiens, UniProt Q96P20) (assay: In vitro IL-1β production test (PMA-differentiated THP-1 cells, Nigericin stimulation, AlphaLISA)). Details: inhibition of IL-1β production; THP-1 cells differentiated with 200 nM PMA; 0.015 mM Nigericin; 2 hours.
T1 construct: endogenous in cells; host or cells: THP-1 (human monocyte-derived), PMA-differentiated, Nigericin-stimulated
T1 sequence (Q96P20 whole entry): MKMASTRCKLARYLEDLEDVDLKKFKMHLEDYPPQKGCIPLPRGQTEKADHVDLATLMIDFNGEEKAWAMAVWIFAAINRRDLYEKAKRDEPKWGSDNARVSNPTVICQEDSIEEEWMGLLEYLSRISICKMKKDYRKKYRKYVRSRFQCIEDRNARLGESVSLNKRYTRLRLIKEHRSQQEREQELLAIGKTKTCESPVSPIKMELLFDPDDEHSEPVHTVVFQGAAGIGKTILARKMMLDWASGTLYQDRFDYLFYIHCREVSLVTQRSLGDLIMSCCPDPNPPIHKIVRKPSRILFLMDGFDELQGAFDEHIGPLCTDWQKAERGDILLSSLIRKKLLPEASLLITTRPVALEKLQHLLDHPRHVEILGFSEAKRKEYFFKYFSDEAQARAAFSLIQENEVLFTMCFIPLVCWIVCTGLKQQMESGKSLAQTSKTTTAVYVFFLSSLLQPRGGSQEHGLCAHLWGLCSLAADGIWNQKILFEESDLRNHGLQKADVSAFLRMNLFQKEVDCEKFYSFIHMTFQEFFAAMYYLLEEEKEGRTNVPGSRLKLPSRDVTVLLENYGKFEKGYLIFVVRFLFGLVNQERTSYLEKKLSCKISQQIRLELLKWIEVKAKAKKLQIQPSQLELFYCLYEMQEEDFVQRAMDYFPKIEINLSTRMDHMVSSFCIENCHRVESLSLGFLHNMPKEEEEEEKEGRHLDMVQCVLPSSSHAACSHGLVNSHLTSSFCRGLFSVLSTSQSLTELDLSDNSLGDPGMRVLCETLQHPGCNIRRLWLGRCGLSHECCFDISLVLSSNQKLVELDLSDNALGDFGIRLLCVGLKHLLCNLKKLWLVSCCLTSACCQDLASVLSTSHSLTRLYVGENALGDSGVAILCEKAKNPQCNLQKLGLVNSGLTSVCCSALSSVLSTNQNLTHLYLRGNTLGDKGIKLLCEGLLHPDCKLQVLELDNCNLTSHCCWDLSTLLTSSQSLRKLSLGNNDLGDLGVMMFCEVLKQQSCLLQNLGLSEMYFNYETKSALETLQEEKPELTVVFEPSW
Format: cell-based
Description: Human monocyte-derived THP-1 cells were cultured for one day in 10% bovine serum-containing RPMI-1640 medium (Thermo #A10491-01) supplemented with 200 nM phorbol 12-myristate 13-acetate (PMA, Sigma #P8139) to induce differentiation.
NLRP3 inflammasome was induced by replacing the culture medium with bovine serum-free RPMI-1640 medium supplemented with 0.015 mM Nigericin (Sigma #SML1779) and the test compound of known concentrations.
After 2 hours, the culture medium supernatant was collected and the IL-1β protein concentration was measured using the AlphaLISA (registered trademark) assay (PerkinElmer #AL220C).
The IL-1β concentration without the addition of the test compound and with Nigericin stimulation was set as 0% inhibitory activity, and the IL-1β concentration without Nigericin stimulation was set as 100% inhibitory activity, and the inhibition rate (% inhibition) of the test compound at each added concentration was calculated.
The % inhibition value was subjected to sigmoid fitting using a logistic regression model to calculate the 50% inhibitory concentration (IC50 value).

IC50	SMILES
42.1 nM	Cc1cc(C(F)(F)F)cc(O)c1-c1cc2c(nn1)N([C@@H]1CCCN(C)C1)CCC2 [Example 36, 3-methyl-2-{8-[(3R)-1-methylpiperidin-3-yl]-5,6,7,8-tetrahydropyrido[2,3-c]pyridazin-3-yl}-5-(trifluoromethyl)phenol]
25.8 nM	Cc1cc(C(F)(F)F)cc(O)c1-c1cc2c(nn1)N([C@@H]1CCCN(C)C1)CCCN2C [Example 37, 3-methyl-2-{5-methyl-9-[(3R)-1-methylpiperidin-3-yl]-6,7,8,9-tetrahydro-5H-pyridazino[3,4-b][1,4]diazepin-3-yl}-5-(trifluoromethyl)phenol]
108 nM	CN1CCC[C@@H](N2CCN3CCCc4c(-c5ccc(C(F)(F)F)cc5O)nnc2c43)C1 [Example 38, 2-{9-[(3R)-1-methylpiperidin-3-yl]-5,6,8,9-tetrahydro-4H, 7H-1,2,6a,9-tetraazaphenalen-3-yl}-5-(trifluoromethyl)phenol]
401 nM	Cc1c(-c2ccc(C(F)(F)F)cc2O)nnc2c1CCN2[C@H]1C[C@@](C)(O)C1 [Example 39, 2-{7-[(1s,3s)-3-hydroxy-3-methylcyclobutyl]-4-methyl-6,7-dihydro-5H-pyrrolo[2,3-c]pyridazin-3-yl}-5-(trifluoromethyl)phenol]
162 nM	Cc1cc(C(F)(F)F)cc(O)c1-c1cc2c(nn1)N([C@H]1C[C@@](C)(O)C1)CC2 [Example 40, 2-{7-[(1s,3s)-3-hydroxy-3-methylcyclobutyl]-6,7-dihydro-5H-pyrrolo[2,3-c]pyridazin-3-yl}-3-methyl-5-(trifluoromethyl)phenol monohydrochloride]
77.5 nM	Cc1c(-c2ccc3c(c2O)CCC3)nnc2c1ccn2[C@H]1C[C@@](C)(O)C1 [Example 41, 5-{7-[(1s,3s)-3-hydroxy-3-methylcyclobutyl]-4-methyl-7H-pyrrolo[2,3-c]pyridazin-3-yl}-2,3-dihydro-1H-inden-4-ol]
22.1 nM	Cc1cc2c(c(O)c1-c1cc3c(C)cn([C@H]4C[C@@](C)(O)C4)c3nn1)CCC2 [Example 43, 5-{7-[(1s,3s)-3-hydroxy-3-methylcyclobutyl]-5-methyl-7H-pyrrolo[2,3-c]pyridazin-3-yl}-6-methyl-2,3-dihydro-1H-inden-4-ol]
75 nM	CCc1cn([C@H]2C[C@@](C)(O)C2)c2nnc(-c3c(C)cc(C(F)(F)F)cc3O)cc12 [Example 44, 2-{5-ethyl-7-[(1s,3s)-3-hydroxy-3-methylcyclobutyl]-7H-pyrrolo[2,3-c]pyridazin-3-yl}-3-methyl-5-(trifluoromethyl)phenol]
8.81 nM	Cc1cc(C(F)(F)F)cc(O)c1-c1cc2c(C#N)cn([C@H]3C[C@@](C)(O)C3)c2nn1 [Example 45, 7-[(1s,3s)-3-hydroxy-3-methylcyclobutyl]-3-[2-hydroxy-6-methyl-4-(trifluoromethyl)phenyl]-7H-pyrrolo[2,3-c]pyridazine-5-carbonitrile]
91.4 nM	Cc1cc(C(F)(F)F)cc(O)c1-c1cc2c(C3CC3)cn([C@H]3C[C@@](C)(O)C3)c2nn1 [Example 46, 2-[5-cyclopropyl-7-[(1s,3s)-3-hydroxy-3-methylcyclobutyl]-7H-pyrrolo[2,3-c]pyridazin-3-yl]-3-methyl-5-(trifluoromethyl)phenol]
101 nM	Cc1cc(C(F)(F)F)c(F)c(O)c1-c1cc2c(C)cn([C@H]3C[C@@](C)(O)C3)c2nn1 [Example 48, 2-fluoro-6-{7-[(1s,3s)-3-hydroxy-3-methylcyclobutyl]-5-methyl-7H-pyrrolo[2,3-c]pyridazin-3-yl}-5-methyl-3-(trifluoromethyl)phenol]

The remaining lines, values behind:

SMILES	IC50
Cc1cc(C(F)(F)F)cc(O)c1-c1cc2c(nn1)N([C@@H]1CCCN(C(C)C)C1)CC2 [Example 15, 3-methyl-2-{7-[(3R)-1-(propan-2-yl)piperidin-3-yl]-6,7-dihydro-5H-pyrrolo[2,3-c]pyridazin-3-yl}-5-(trifluoromethyl)phenol]	4.86 nM
Cc1cc(C(F)(F)F)cc(O)c1-c1cc2c(C#N)cn(C34CCCC(O)(C3)C4)c2nn1 [Example 16, 7-(5-hydroxybicyclo[3.1.1]heptan-1-yl)-3-[2-hydroxy-6-methyl-4-(trifluoromethyl)phenyl]-7H-pyrrolo[2,3-c]pyridazine-5-carbonitrile]	8.6 nM
Cc1cc(C(F)(F)F)cc(O)c1-c1cc2c(nn1)N([C@@H]1CCCN(C3CC3)C1)CC2 [Example 18, 2-{7-[(3R)-1-cyclopropylpiperidin-3-yl]-6,7-dihydro-5H-pyrrolo[2,3-c]pyridazin-3-yl}-3-methyl-5-(trifluoromethyl)phenol]	6.65 nM
CCN1CCC[C@@H](n2cc(C)c3cc(-c4c(C)cc(C(F)(F)F)cc4O)nnc32)C1 [Example 20, 2-{7-[(3R)-1-ethylpiperidin-3-yl]-5-methyl-7H-pyrrolo[2,3-c]pyridazin-3-yl}-3-methyl-5-(trifluoromethyl)phenol]	8.19 nM
CCN1CCC[C@@H](N2CCc3cc(-c4c(C)cc(OC(F)F)cc4O)nnc32)C1 [Example 22, 5-(difluoromethoxy)-2-{7-[(3R)-1-ethylpiperidin-3-yl]-6,7-dihydro-5H-pyrrolo[2,3-c]pyridazin-3-yl}-3-methylphenol]	10.5 nM
CCN1CCC[C@@H](N2CCc3cc(-c4c(C)cc(OC(F)(F)F)cc4O)nnc32)C1 [Example 23, 2-{7-[(3R)-1-ethylpiperidin-3-yl]-6,7-dihydro-5H-pyrrolo[2,3-c]pyridazin-3-yl}-3-methyl-5-(trifluoromethoxy) phenol]	11.8 nM
COc1cn(C23CCCC(O)(C2)C3)c2nnc(-c3c(C)cc(C(F)(F)F)cc3O)cc12 [Example 24, 5-{3-[2-hydroxy-6-methyl-4-(trifluoromethyl)phenyl]-5-methoxy-7H-pyrrolo[2,3-c]pyridazin-7-yl}bicyclo[3.1.1]heptan-1-ol]	34.8 nM
CCN1CCC[C@@H](N2CCc3cc(-c4c(C)cc(Cl)cc4O)nnc32)C1 [Example 26, 5-chloro-2-{7-[(3R)-1-ethylpiperidin-3-yl]-6,7-dihydro-5H-pyrrolo[2,3-c]pyridazin-3-yl}-3-methylphenol]	6.18 nM
COc1cn([C@H]2C[C@@](C)(O)C2)c2nnc(-c3c(C)cc(Cl)cc3O)cc12 [Example 28, 5-chloro-2-{7-[(1s,3s)-3-hydroxy-3-methylcyclobutyl]-5-methoxy-7H-pyrrolo[2,3-c]pyridazin-3-yl}-3-methylphenol]	12 nM
Cc1cc(Cl)cc(O)c1-c1cc2c(OC(F)F)cn([C@H]3C[C@@](C)(O)C3)c2nn1 [Example 29, 5-chloro-2-{5-(difluoromethoxy)-7-[(1s,3s)-3-hydroxy-3-methylcyclobutyl]-7H-pyrrolo[2,3-c]pyridazin-3-yl}-3-methylphenol]	12.4 nM
Cc1cc(C(F)(F)F)cc(O)c1-c1cc2ncn([C@@H]3CCCN(C)C3)c2nn1 [Example 32, 3-methyl-2-{7-[(3R)-1-methylpiperidin-3-yl]-7H-imidazo[4,5-c]pyridazin-3-yl}-5-(trifluoromethyl)phenol]	30.6 nM
Cc1cc(C(F)(F)F)cc(O)c1-c1cc2c(nn1)N([C@@H]1CCCN(C)C1)CCN2C [Example 35, 3-methyl-2-{5-methyl-8-[(3R)-1-methylpiperidin-3-yl]-5,6,7,8-tetrahydropyrazino[2,3-c]pyridazin-3-yl}-5-(trifluoromethyl)phenol]	25.6 nM
